Results on 27 compounds are retold here after patent US11136317B2, “NADPH oxidase 4 inhibitors” (ACTELION PHARMACEUTICALS LTD, priority 2015, dated 2021).

pIC50: −log10 of the molar value.

The experiment addresses T1, human NOX4 (Homo sapiens, UniProt Q9NPH5).
T1 construct: The full-length human NOX4 (NM_016931.3) transcript was cloned; expressed in transfected cells
T1 sequence (Q9NPH5 1-578): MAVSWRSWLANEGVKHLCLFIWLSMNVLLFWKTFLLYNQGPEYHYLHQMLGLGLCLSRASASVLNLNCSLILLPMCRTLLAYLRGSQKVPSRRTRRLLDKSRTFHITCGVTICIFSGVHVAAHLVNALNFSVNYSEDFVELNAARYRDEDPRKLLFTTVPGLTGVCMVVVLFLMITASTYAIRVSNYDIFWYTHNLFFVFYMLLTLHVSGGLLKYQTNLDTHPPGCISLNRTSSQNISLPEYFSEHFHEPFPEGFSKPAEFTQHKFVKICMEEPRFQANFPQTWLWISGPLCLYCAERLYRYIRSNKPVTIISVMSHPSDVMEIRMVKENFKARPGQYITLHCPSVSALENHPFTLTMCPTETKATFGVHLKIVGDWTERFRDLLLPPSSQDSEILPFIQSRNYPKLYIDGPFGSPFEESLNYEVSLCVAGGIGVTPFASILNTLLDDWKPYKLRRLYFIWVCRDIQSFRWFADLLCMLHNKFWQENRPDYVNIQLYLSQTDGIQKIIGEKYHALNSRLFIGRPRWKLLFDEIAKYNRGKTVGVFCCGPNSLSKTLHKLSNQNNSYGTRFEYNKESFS
T1 sequence (P13498 1-195 partner): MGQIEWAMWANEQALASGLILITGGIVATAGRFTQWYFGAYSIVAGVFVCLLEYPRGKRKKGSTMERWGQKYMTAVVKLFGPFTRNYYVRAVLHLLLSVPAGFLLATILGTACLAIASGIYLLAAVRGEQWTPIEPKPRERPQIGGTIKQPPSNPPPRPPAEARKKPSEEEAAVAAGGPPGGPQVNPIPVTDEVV
Put plainly: Amplex Red activity assay (cellular H2O2 formation in hNOX4 T-REx-293 cells). The format is cell-based. To be noted: tet-induced 24 h, extracellular H2O2 by Amplex Red, 60 min 25° C., geometric mean if determined several times. A digest of the protocol: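 Tet-induced (1 μg/mL, 24 h) HEK293 T-REx cells stably expressing full-length human NOX4, 20 000 cells/well, exposed to compounds (10 concentrations, 50 μM to 100 nM; 1.25% DMSO) for 60 min at 25°C. Extracellular H2O2 detected by Amplex Red resorufin fluorescence (ex 550/em 600 nm) versus vehicle; IC50 calculated.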
By pIC50 is commonly meant the IC50 on a negative log10 scale, so that one unit is a factor of ten. Take `O=C(Nc1ccc2oc(N3CCC34COC4)nc2c1)c1ccc2c(c1)CCCO2` [Example 143, Chroman-6-carboxylic acid [2-(6-oxa-1-aza-spiro[3.3]hept-1-yl)-benzooxazol-5-yl]-amide]: the pIC50 was 6.17.

Turning to `O=C(Nc1ccc2oc(N3CCC34CCOC4)nc2c1)c1ccc2c(c1)CCCO2` (stereo not drawn) [Example 144, Chroman-6-carboxylic acid [2-(6-oxa-1-aza-spiro[3.4]oct-1-yl)-benzooxazol-5-yl]-amide], the pIC50 is 5.81.

For the compound `O=C(Nc1ccc2oc(N3CCC34CCOCC4)nc2c1)c1ccc2c(c1)CCCO2` [Example 145, Chroman-6-carboxylic acid [2-(7-oxa-1-aza-spiro[3.5]non-1-yl)-benzooxazol-5-yl]-amide], the pIC50 was 5.85.

Take `O=C(Nc1ccc2oc(N3CCCC3)nc2c1)c1ccc2c(c1)CCCO2` [Example 146, Chroman-6-carboxylic acid (2-pyrrolidin-1-yl-benzooxazol-5-yl)-amide]: the pIC50 was 5.50.

For the compound `O=C(Nc1ccc2oc(N3CCCC34COC4)nc2c1)c1ccc2c(c1)CCCO2` [Example 147, Chroman-6-carboxylic acid [2-(2-oxa-5-aza-spiro[3.4]oct-5-yl)-benzooxazol-5-yl]-amide], the negative-log IC50 (pIC50) was 6.42.

On to `O=C(Nc1ccc2oc(N3CCCCC3)nc2c1)c1ccc2c(c1)CCCO2` [Example 148, Chroman-6-carboxylic acid (2-piperidin-1-yl-benzooxazol-5-yl)-amide], for which the pIC50 was 5.73.

In the case of `O=C(Nc1ccc2oc(N3CCC(F)(F)CC3)nc2c1)c1ccc2c(c1)CCCO2` [Example 149, Chroman-6-carboxylic acid [2-(4,4-difluoro-piperidin-1-yl)-benzooxazol-5-yl]-amide], the pIC50 is 5.84.

Turning to `O=C(Nc1ccc2oc(N3CCCC(F)(F)C3)nc2c1)c1ccc2c(c1)CCCO2` [Example 150, Chroman-6-carboxylic acid [2-(3,3-difluoro-piperidin-1-yl)-benzooxazol-5-yl]-amide], the pIC50 was 5.66.

For the compound `O=C(Nc1ccc2oc(N3CCC(O)CC3)nc2c1)c1ccc2c(c1)CCCO2` [Example 151, Chroman-6-carboxylic acid [2-(4-hydroxy-piperidin-1-yl)-benzooxazol-5-yl]-amide], the pIC50 was 5.85.

In the case of `COC1CCN(c2nc3cc(NC(=O)c4ccc5c(c4)CCCO5)ccc3o2)CC1` [Example 152, Chroman-6-carboxylic acid [2-(4-methoxy-piperidin-1-yl)-benzooxazol-5-yl]-amide], the pIC50 is 5.87.

In the case of `O=C(Nc1ccc2oc(N3CCC4(CC3)COC4)nc2c1)c1ccc2c(c1)CCCO2` [Example 153, Chroman-6-carboxylic acid [2-(2-oxa-7-aza-spiro[3.5]non-7-yl)-benzooxazol-5-yl]-amide], the pIC50 is 5.89.

Regarding `O=C(Nc1ccc2oc(N3CCCC4(COC4)C3)nc2c1)c1ccc2c(c1)CCCO2` [Example 154, Chroman-6-carboxylic acid [2-(2-oxa-6-aza-spiro[3.5]non-6-yl)-benzooxazol-5-yl]-amide], the pIC50 was 5.95.

Regarding `O=C(Nc1ccc2oc(N3CCOCC3)nc2c1)c1ccc2c(c1)CCCO2` [Example 155, Chroman-6-carboxylic acid (2-morpholin-4-yl-benzooxazol-5-yl)-amide], the pIC50 was 6.12.

For `CN1CCN(c2nc3cc(NC(=O)c4ccc5c(c4)CCCO5)ccc3o2)CC1` [Example 156, Chroman-6-carboxylic acid [2-(4-methyl-piperazin-1-yl)-benzooxazol-5-yl]-amide], the pIC50 was 5.75.

On to `CCN(CC)c1nc2cc(NC(=O)c3ccc4c(c3)CCCO4)ccc2o1` [Example 157, Chroman-6-carboxylic acid (2-diethylamino-benzooxazol-5-yl)-amide], for which the pIC50 is 5.69.

`O=C(Nc1ccc2oc(N(C3CC3)C3COC3)nc2c1)c1ccc2c(c1)CCCO2` [Example 158, Chroman-6-carboxylic acid [2-(cyclopropyl-oxetan-3-yl-amino)-benzooxazol-5-yl]-amide]: the pIC50 was 5.54.

Regarding `O=C(Nc1ccc2oc(N3CC(O)C3)nc2c1)c1ccc2c(c1)OCCO2` [Example 159, 2,3-Dihydro-benzo[1,4]dioxine-6-carboxylic acid [2-(3-hydroxy-azetidin-1-yl)-benzooxazol-5-yl]-amide], the pIC50 was 5.83.

`O=C(Nc1ccc2oc(N3CCC34COC4)nc2c1)c1ccc2c(c1)OCCO2` [Example 160, 2,3-Dihydro-benzo[1,4]dioxine-6-carboxylic acid [2-(6-oxa-1-aza-spiro[3.3]hept-1-yl)-benzooxazol-5-yl]-amide]: the pIC50 is 6.27.

Consider `O=C(Nc1ccc2oc(N3CCC34CCC4)nc2c1)c1ccc2c(c1)OCCO2` [Example 161, 2,3-Dihydro-benzo[1,4]dioxine-6-carboxylic acid [2-(1-aza-spiro[3.3]hept-1-yl)-benzooxazol-5-yl]-amide], for which the pIC50 is 6.18.

With `O=C(Nc1ccc2oc(N3CCC34CCOC4)nc2c1)c1ccc2c(c1)OCCO2` (stereo not drawn) [Example 162, 2,3-Dihydro-benzo[1,4]dioxine-6-carboxylic acid [2-(6-oxa-1-aza-spiro[3.4]oct-1-yl)-benzooxazol-5-yl]-amide], the pIC50 is 6.02.

Consider `O=C(Nc1ccc2oc(N3CCC34CCOCC4)nc2c1)c1ccc2c(c1)OCCO2` [Example 163, 2,3-Dihydro-benzo[1,4]dioxine-6-carboxylic acid [2-(7-oxa-1-aza-spiro[3.5]non-1-yl)-benzooxazol-5-yl]-amide], for which the pIC50 was 5.94.

For `O=C(Nc1ccc2oc(N3CCCC3)nc2c1)c1ccc2c(c1)OCCO2` [Example 164, 2,3-Dihydro-benzo[1,4]dioxine-6-carboxylic acid (2-pyrrolidin-1-yl-benzooxazol-5-yl)-amide], the pIC50 is 5.89.

As to `O=C(Nc1ccc2oc(N3CCCC34COC4)nc2c1)c1ccc2c(c1)OCCO2` [Example 165, 2,3-Dihydro-benzo[1,4]dioxine-6-carboxylic acid [2-(2-oxa-5-aza-spiro[3.4]oct-5-yl)-benzooxazol-5-yl]-amide], the pIC50 was 6.12.

Regarding `O=C(Nc1ccc2oc(N3CCCCC3)nc2c1)c1ccc2c(c1)OCCO2` [Example 166, 2,3-Dihydro-benzo[1,4]dioxine-6-carboxylic acid (2-piperidin-1-yl-benzooxazol-5-yl)-amide], the pIC50 was 5.82.

Turning to `O=C(Nc1ccc2oc(N3CCC(O)CC3)nc2c1)c1ccc2c(c1)OCCO2` [Example 167, 2,3-Dihydro-benzo[1,4]dioxine-6-carboxylic acid [2-(4-hydroxy-piperidin-1-yl)-benzooxazol-5-yl]-amide], the pIC50 was 5.91.

Consider `O=C(Nc1ccc2oc(N3CCCC(F)(F)C3)nc2c1)c1ccc2c(c1)OCCO2` [Example 168, 2,3-Dihydro-benzo[1,4]dioxine-6-carboxylic acid [2-(3,3-difluoro-piperidin-1-yl)-benzooxazol-5-yl]-amide], for which the pIC50 was 5.94.

On to `COC1CCN(c2nc3cc(NC(=O)c4ccc5c(c4)OCCO5)ccc3o2)CC1` [Example 169, 2,3-Dihydro-benzo[1,4]dioxine-6-carboxylic acid [2-(4-methoxy-piperidin-1-yl)-benzooxazol-5-yl]-amide], for which the pIC50 is 6.10.
